Reference: US9241928B2, “Antimicrobial compounds” (The General Hospital Corporation, priority 2009, dated 2016)
Values after ≈ are worked out from the molar mass of the structure shown.

Legend:
E. faecalis MMH594 = assay: MIC assay, E. faecalis in vitro; type: cell-based; details: Enterococcus faecalis; E. faecalis MMH594 in 20% BHI, 80% M9, 37° C., 15 hours, scored by eye
Protocol: A culture of E. faecalis MMH594 was grown overnight in BHI broth to stationary phase at 37° C. with aeration. The culture was diluted to an approximate density of […] in worm infection media (20% BHI, 80% M9 buffer). 12.5 μl of the bacterial culture dilution was inoculated into 384-well plates containing 12.5 μl of 2-fold serial dilutions of a test compound. […] Plates were incubated at 37° C. for 15 hours and scored by eye for bacterial growth.

[1] = system: C. elegans infected with E. faecalis; assay: Dose response time courses in the C. elegans-E. faecalis infection assay; type: in vivo, Caenorhabditis elegans; details: Effective Concentration: survival significantly different from mock-treated, p-value <0.05, logrank; read-out: EC
Protocol: (§1) glp-4(bn2); sek-1 (km4) mutant worms were grown to gravid adult stage. 1,000 worms at the L1 stage were grown for 5.2 days at 15° C. on 9-cm plates of SK agar media spread with a lawn of E. coli strain HB101. Embryos from the gravid adults were isolated by a previously described hypochlorite method (see Tan et al., (1999) Proc. Natl. Acad. Sci. USA 96, 715-720) and hatched at 15° C. for 2 days. Approximately 4,500 of the Ll hatchlings were grown on each 9-cm plate of SK-NS agar (SK media with 62.5 U/ml nystatin and 100 μg/ml streptomycin) and with lawns of E. coli HB101. These worms were grown at 25° C. for 52 hours to generate sterile, young adults.
(§2) A culture of E. faecalis MMH594 was grown in BHI broth (BD Difco) with 80 μg/ml kanamycin at 37° C. for 6 hours and 100 μl of the culture were spread onto each 9-cm plate of BHI agar containing 80 μg/mlkanamycin. Lawns of E. faecalis were grown at 25° C. for 16 hours and transferred to 15° C. for 8 hours.
(§3) Sterile adult worms were resuspended in M9 buffer and washed twice with M9 in a 1:10 ratio to remove E. coli. 8,000 worms were pipetted onto each lawn of E. faecalis and incubated 15 hours at 15° C. After infection, the worms were resuspended in M9 and used as described below. 384-well plates (Corning #3712) were filled with 55 μl media (see below) using a Thermo Scientific MULTIDROP Combi reagent dispenser. 0.3 μl of a candidate compound in DSMO were pin transferred into each well using a CyBio CYBI-Well vario transfer system. The plates were agitated using an Eppendorf MIXMATE at 1,800 rpm for 15 seconds. Using the Union Biometrica Complex Object Parametric Analyzer and Sorter (COPAS) BIOSORT worm sorter according to manufacturer's protocols, 15 of the infected worms were transferred to each well in a total volume of approximately 15 μl. Total volume per well is 70 μl/well with a final composition of the media being 20% BHI, […], 80 μg/ml kanamycin, 62.5 U/ml nystatin, 1% DMSO, and 19% sheath solution (Union Biometrica Part #300-5101-000). Plates were vortexed for 5 seconds, centrifuged at 1000×g for 10 seconds, and sealed with gas permeable membranes (BREATHEASY Diversified). Plates were placed in a single layer on the top shelves in a 26.3° C. incubator at 85% relative humidity (RH) and incubated without agitation for 5 days.
The dose dependence of certain antimicrobial compounds identified by the assay above were studied. These compounds were purchased in a larger amount from commercial sources. For each of these compounds, an infection assay was performed essentially as described above at different concentrations except that SYTOX staining was not used. Instead, bright-field images of the wells were acquired at daily time points and scored manually for worm survival by analyzing worm body positioning. […] All compounds used in this assays were confirmed for their identity and purity by liquid chromatography/mass spectrometry.

[2] = system: MRSA infection in Caenorhabditis elegans; assay: MRSA infection assay in C. elegans (liquid); type: in vivo; details: 5 days
Text: To screen/test candidate compounds for their efficacy against Methicillin-resistant Staphylococcus aureus (MRSA) using Caenorhabditis elegans (C. elegans), a liquid high throughput screening assay was developed. In contrast to the Enterococcus faecalis infection assay, where worms are pre-infected with E. faecalis on agar prior to the start of the screening assay and then infected worms are transferred to microtiter plates using the COPAS BioSort robot, the infection of worms with MRSA occurred directly in the liquid medium. This liquid infection protocol with MRSA was developed because the COPAS BioSort, the large particle sorter used to dispense worms into multiwell plates, is a pressurized system that can generate aerosols. Because MRSA is a potentially dangerous pathogen for immune competent individuals, sorting MRSA-infected worms in the COPAS BioSort was deemed to be potentially hazardous.
The MRSA infection assay was carried out by incubating C. elegans with three MRSA strains (i.e., USA100, USA400 and MW2) in 96 or 384-well microtiter plates and assessing whether worms were live or dead after a 5 day incubation.
The MRSA infection assay was performed as follows: Worms were grown on agar using non-pathogenic E. coli as a food source until they reached the L4/young adult stage. A small volume of M9 buffer was added to the agar plates to float worms gently off the food source. The worms were then transferred into a large conical tube and washed 2 times by allowing worms to settle, aspirating the supernatant and adding fresh M9 buffer. 15 worms were then transferred using a COPAS BioSort large particle sorter into a 96-well plate containing […] of M9. […] After the worms were stained for 18 hours, images of the plates were acquired in bright field and red fluorescence channels using a Molecular Devices Discovery-1 or ImageXpress automated microscopy system. The total number of worms was counted in the bright field image and the number of dead animals are determined by positive SYTOX staining. […]

[3] = system: E. faecalis strain MMH594; assay: Antimicrobial (bacterial killing) assay; type: cell-based, Enterococcus faecalis; details: mM concentrations, 1 to 30 minutes, room temperature
Protocol: Compounds 6, 7, 15 were purchased from TimTec and ChemDiv, dissolved in DMSO at a concentration of 5 or 10 mg/ml, and further diluted in DMSO as indicated. E. faecalis strain MMH594 was grown overnight with aeration at 37° C. in Bacto brain heart infusion (BHI) broth (Becton Dickinson), transferred to ice, and washed in phosphate-buffered saline (PBS; pH 7.2). Equal volumes of a dissolved compound and bacteria were mixed, incubated at room temperature for 1 to 30 minutes, ten-fold serially diluted in PBS, and plated in […] droplets on BHI agar plates. Plates were incubated at room temperature until colonies were visible.

[4] = system: C. elegans infected with E. faecalis; assay: Automated infection assay for primary compound screening (SYTOX staining, CELLPROFILER); type: in vivo, Caenorhabditis elegans
Protocol: In general, the area of each well that is SYTOX-positive in the fluorescence image is measured and normalized by the total area occupied by all worms, which is quantified in the bright field image. This typically requires illumination correction to flatten lighting abnormalities, adaptive thresholding, and size- and contrast-based filters and masks to exclude debris and other artifacts. By calculating the ratio of the fluorescent area (which corresponds to the area occupied by dead worms) to the total area occupied by all worms, one can accurately determine the number of dead worms in each well. […] In a well where the worms are rescued by ampicillin treatment, 3 of the 14 worms were dead based on manual scoring. The ratio of the fluorescent area to the area occupied by all worms obtained by the CELLPROFILER analysis is correspondingly low at 0.12.
as §1, §2, §3
After 5 days, the bacteria and liquid media in the assay plates were removed as described below. First, the bacteria were re-suspended by shaking on the MIXMATE for 15 seconds at 1,800 rpm, the sealing membrane was removed, and the worms were allowed to settle to the bottom of the wells for 3 minutes. […]

| MIC (E. faecalis MMH594) | Compound | minimal effective concentration [1] | bactericidal activity (FIGS. 7A and 7B) [3] | also measured |
| --- | --- | --- | --- | --- |
| 12.5 µg/mL (≈ 32.9 µM) | Oc1c(C(Nc2ccccn2)c2ccccc2F)cc(Cl)c2cccnc12 (stereo not shown) [Compound 1] | 0.78 µg/mL |  |  |
| 25 µg/mL (≈ 65.8 µM) | Oc1c(C(Nc2ccccn2)c2cccc(F)c2)cc(Cl)c2cccnc12 (stereo not shown) [Compound 2] | 1.56 µg/mL |  |  |
| 12.5 µg/mL (≈ 34.5 µM) | Oc1c(C(Nc2ccccn2)c2ccccn2)cc(Cl)c2cccnc12 (stereo not shown) [Compound 3] | 3.13 µg/mL |  | survival of MRSA-infected worms (FIG. 4) ([2]; 6.25 and 12.5 μg/ml): resulted in survival of MRSA-infected worms |
| 1.56 µg/mL (≈ 5.07 µM) | CC(C)(C)C1=NN(c2nc3ccc(Cl)cc3s2)C(=O)C1 [Compound 4] | 0.39 µg/mL |  |  |
| > 100 µg/mL | O=C(CCSCc1ccc(Cl)cc1)N1CCN(c2ccccc2)CC1 [Compound 7] | 25 µg/mL | did not show any bactericidal activity |  |
| > 100 µg/mL | CSc1ccc(-c2cccs2)nn1 [Compound 8] | 3.13 µg/mL |  |  |
| > 100 µg/mL | Cc1c(O)ccc(/C=N/Nc2nc(-c3ccc(Br)cc3)nc3ccccc23)c1O [Compound 9] | 3.13 µg/mL |  | survival of MRSA-infected worms (FIG. 4) ([2]; 25 and 50 μg/ml): resulted in survival of MRSA-infected worms |
|  | CC(=O)O [acetic acid, reference compound] |  | did not show any bactericidal activity |  |
|  | CC1(C)S[C@@H]2[C@H](NC(=O)[C@H](N)c3ccccc3)C(=O)N2[C@H]1C(=O)O [ampicillin] |  |  | z-score, screen average ([4]; ampicillin-treated wells, 21 μg/ml): −8.70; dead worms based on manual scoring ([4]; of 14 worms in the well, ampicillin treatment): 3; ratio of the fluorescent area to the area occupied by all worms (CELLPROFILER) ([4]; well where worms are rescued by ampicillin treatment): 0.12 |
|  | CCC(=O)O [propionic acid, reference compound] |  | did not show any bactericidal activity |  |
